Reference: US20240252474A1, “METHODS AND COMPOSITIONS COMPRISING A CARDIO-TOLERATED HDAC INHIBITOR” (HUYABIO International, LLC, priority 2023, published 2024)

Assay: Phase 1b safety and tolerability of HBI-8000 combined with nivolumab (DLTs, TEAEs)
Assay type: in vivo
Description: The present example, was a Phase Ib/2 open-label dose finding study for HBI-8000 (also referred to in the art as “chidamide” or “tucidinostat” and also referred to herein as a compound of formula I) in combination with nivolumab in patients with advanced solid tumors, including melanoma, RCC (renal cell carcinoma), and NSCLC (non-small cell lung cancer). This study was conducted in accordance with Good Clinical Practice guidelines and the Declaration of Helsinki and with assurance/approval from the US Department of Health and Human Services; the protocol was approved by the institutional review boards or ethics committees of all participating sites. All patients provided written informed consent to participate before enrollment. […]
HBI-8000 at three dose levels (20 mg, 30 mg, and 40 mg) given orally twice a week (BIW) were evaluated. Doses were taken approximate 30 minutes after a meal. The starting dose (20 mg) was selected based on pharmacokinetic profiles established for monotherapy in Japanese patients with T-cell lymphoma.
The decision to escalate the dose was based on the conventional 3+3 design and observed incidences of dose-limiting toxicities (DLTs). Each treatment cycle was defined as 28 days. […] Subjects experiencing DLT within the first two weeks after having received 100% of assigned dose of HBI-8000 are also evaluable for DLT. Unacceptable toxicities were defined as grade 3 or higher non-hematologic and hematologic toxicities with clinical complications. Unacceptable toxicities observed over the first 28 days following HBI-8000 administration were considered as DLTs. […] HBI-8000 administration continued until disease progression or unacceptable toxicity was observed. The efficacy of the combination was further evaluated in an expanded cohort of selected patient populations at RP2D based on an objective response rate according to Response Evaluation Criteria in Solid Tumors (RECIST) version 1.1 criteria, progression-free survival, and duration of responses.
Safety evaluations included physical examinations, vital signs, ECGs, ECOG performance status, and laboratory tests.
Statistical analyses of safety, tolerability, and anti-tumor activity were primarily descriptive in nature. Toxicities were tabulated by type and grade. The safety population included all patients who received ≥1 dose of HBI-8000 and nivolumab. Continuous variables were summarized using descriptive statistics and categorical variables were summarized with number and percentage at each category. Pharmacokinetic parameters were derived using noncompartmental methods with Phoenix® WinNonlin® Version 6.4 (Certara, L. P., Princeton, NJ, USA).

[1] = 20 mg HBI-8000 BIW + nivolumab, N = 3
[2] = 30 mg HBI-8000 BIW + nivolumab, N = 7
[3] = 40 mg HBI-8000 BIW + nivolumab, N = 7

Nc1cc(F)ccc1NC(=O)c1ccc(CNC(=O)/C=C/c2cccnc2)cc1 [HBI-8000, N-(2-amino-4-fluorophenyl)-4-[[[(2E)-1-oxo-3-(3-pyridinyl)-2-propen-1-yl]amino]methyl]benzamide]
Alanine aminotransferase increased, All, G < 3 [1]: 1 (33) n (%) | Alanine aminotransferase increased, Related Both, Any G [1]: 1 (33) n (%) | Any SAE, number of subjects [1]: 1 n | Any TEAE, number of subjects [1]: 3 n | Aspartate aminotransferase increased, All, G < 3 [1]: 1 (33) n (%) | Aspartate aminotransferase increased, Related Both, Any G [1]: 1 (33) n (%) | Decreased appetite, All, G < 3 [1]: 1 (33) n (%) | Dehydration, All, G < 3 [1]: 1 (33) n (%) | Diarrhoea, All, G < 3 [1]: 2 (67) n (%) | Diarrhoea, Related Both, Any G [1]: 1 (33) n (%) | Dizziness, All, G < 3 [1]: 1 (33) n (%) | Dyspnoea, All, G < 3 [1]: 2 (67) n (%) | Dyspnoea, Related Both, Any G [1]: 1 (33) n (%) | Fatigue, All, G < 3 [1]: 2 (67) n (%) | Fatigue, All, G ≥ 3 [1]: 1 (33) n (%) | Fatigue, Related Both, Any G [1]: 1 (33) n (%) | Headache, All, G < 3 [1]: 1 (33) n (%) | Hypocalcaemia, All, G < 3 [1]: 1 (33) n (%) | Hypocalcaemia, All, G ≥ 3 [1]: 1 (33) n (%) | Hypokalaemia, All, G ≥ 3 [1]: 1 (33) n (%) | Nausea, All, G < 3 [1]: 2 (67) n (%) | Nausea, All, G ≥ 3 [1]: 1 (33) n (%) | Oedema peripheral, All, G < 3 [1]: 1 (33) n (%) | SAE related to HBI-8000 & Nivolumab, number of subjects [1]: 0 n | SAE related to HBI-8000 alone, number of subjects [1]: 0 n | TEAE related to HBI-8000 & Nivolumab, number of subjects [1]: 3 n | TEAE related to HBI-8000 alone, number of subjects [1]: 0 n | TEAE resulting in discontinuation of HBI-8000 alone, number of subjects [1]: 2 n | TEAE resulting in discontinuation of both HBI-8000 and Nivo, number of subjects [1]: 0 n | Vomiting, All, G < 3 [1]: 1 (33) n (%) | Weight decreased, All, G < 3 [1]: 1 (33) n (%) | Alanine aminotransferase increased, All, G < 3 [2]: 2 (29) n (%) | Alanine aminotransferase increased, Related Both, Any G [2]: 2 (29) n (%) | Anaemia, All, G < 3 [2]: 4 (57) n (%) | Anaemia, All, G ≥ 3 [2]: 1 (14) n (%) | Anaemia, Related Both, Any G [2]: 3 (43) n (%) | Any SAE, number of subjects [2]: 6 n | Any TEAE, number of subjects [2]: 7 n | Aspartate aminotransferase increased, All, G < 3 [2]: 2 (29) n (%) | Aspartate aminotransferase increased, Related Both, Any G [2]: 2 (29) n (%) | Atrial fibrillation, All, G < 3 [2]: 1 (14) n (%) | Back pain, All, G < 3 [2]: 4 (57) n (%) | Back pain, Related Both, Any G [2]: 1 (14) n (%) | Contusion, All, G < 3 [2]: 1 (14) n (%) | Contusion, Related Both, Any G [2]: 1 (14) n (%) | Decreased appetite, All, G < 3 [2]: 4 (57) n (%) | Decreased appetite, All, G ≥ 3 [2]: 1 (14) n (%) | Decreased appetite, Related Both, Any G [2]: 3 (43) n (%) | Decreased appetite, Related HBI, Any G [2]: 1 (14) n (%) | Dehydration, All, G < 3 [2]: 2 (29) n (%) | Dehydration, All, G ≥ 3 [2]: 1 (14) n (%) | Dehydration, Related Both, Any G [2]: 1 (14) n (%) | Diarrhoea, All, G < 3 [2]: 3 (43) n (%) | Diarrhoea, Related Both, Any G [2]: 3 (43) n (%) | Dizziness, All, G < 3 [2]: 2 (29) n (%) | Dizziness, Related Both, Any G [2]: 1 (14) n (%) | Dizziness, Related HBI, Any G [2]: 1 (14) n (%) | Dyspnoea, All, G < 3 [2]: 4 (57) n (%) | Dyspnoea, Related Both, Any G [2]: 1 (14) n (%) | Fall, All, G < 3 [2]: 2 (29) n (%) | Fall, Related Both, Any G [2]: 1 (14) n (%) | Fatigue, All, G < 3 [2]: 5 (71) n (%) | Fatigue, All, G ≥ 3 [2]: 1 (14) n (%) | Fatigue, Related Both, Any G [2]: 4 (57) n (%) | Headache, All, G < 3 [2]: 2 (29) n (%) | Headache, Related Both, Any G [2]: 1 (14) n (%) | Hypocalcaemia, All, G < 3 [2]: 3 (43) n (%) | Hypocalcaemia, Related Both, Any G [2]: 2 (29) n (%) | Hypokalaemia, All, G < 3 [2]: 2 (29) n (%) | Hypokalaemia, All, G ≥ 3 [2]: 1 (14) n (%) | Hypokalaemia, Related Both, Any G [2]: 1 (14) n (%) | Hypophosphataemia, All, G < 3 [2]: 3 (43) n (%) | Hypophosphataemia, All, G ≥ 3 [2]: 3 (43) n (%) | Hypophosphataemia, Related Both, Any G [2]: 2 (29) n (%) | Hypophosphataemia, Related HBI, Any G [2]: 1 (14) n (%) | Hypotension, All, G < 3 [2]: 1 (14) n (%) | Hypotension, All, G ≥ 3 [2]: 2 (29) n (%) | Hypotension, Related Both, Any G [2]: 1 (14) n (%) | Hypoxia, All, G < 3 [2]: 1 (14) n (%) | Hypoxia, All, G ≥ 3 [2]: 3 (43) n (%) | Hypoxia, Related Both, Any G [2]: 1 (14) n (%) | Lipase increased, All, G < 3 [2]: 3 (43) n (%) | Lipase increased, All, G ≥ 3 [2]: 4 (57) n (%) | Lipase increased, Related Both, Any G [2]: 2 (29) n (%) | Lymphocyte count decreased, All, G < 3 [2]: 3 (43) n (%) | Lymphocyte count decreased, All, G ≥ 3 [2]: 3 (43) n (%) | Lymphocyte count decreased, Related Both, Any G [2]: 2 (29) n (%) | Nausea, All, G < 3 [2]: 3 (43) n (%) | Nausea, Related HBI, Any G [2]: 1 (14) n (%) | Neutrophil count decreased, All, G < 3 [2]: 2 (29) n (%) | Neutrophil count decreased, All, G ≥ 3 [2]: 1 (14) n (%) | Neutrophil count decreased, Related Both, Any G [2]: 1 (14) n (%) | Neutrophil count decreased, Related HBI, Any G [2]: 1 (14) n (%) | Non-cardiac chest pain, All, G < 3 [2]: 2 (29) n (%) | Oedema peripheral, All, G < 3 [2]: 4 (57) n (%) | Oedema peripheral, All, G ≥ 3 [2]: 1 (14) n (%) | Oedema peripheral, Related Both, Any G [2]: 1 (14) n (%) | Oedema peripheral, Related HBI, Any G [2]: 1 (14) n (%) | Platelet count decreased, All, G < 3 [2]: 4 (57) n (%) | Platelet count decreased, Related Both, Any G [2]: 3 (43) n (%) | Platelet count decreased, Related HBI, Any G [2]: 1 (14) n (%) | Pleural effusion, All, G < 3 [2]: 3 (43) n (%) | Pleural effusion, Related Both, Any G [2]: 1 (14) n (%) | SAE related to HBI-8000 & Nivolumab, number of subjects [2]: 0 n | SAE related to HBI-8000 alone, number of subjects [2]: 0 n | TEAE related to HBI-8000 & Nivolumab, number of subjects [2]: 5 n | TEAE related to HBI-8000 alone, number of subjects [2]: 4 n | TEAE resulting in discontinuation of HBI-8000 alone, number of subjects [2]: 1 n | TEAE resulting in discontinuation of both HBI-8000 and Nivo, number of subjects [2]: 1 n | Vomiting, All, G < 3 [2]: 1 (14) n (%) | Vomiting, Related Both, Any G [2]: 1 (14) n (%) | Weight decreased, All, G < 3 [2]: 5 (71) n (%) | Weight decreased, Related Both, Any G [2]: 3 (43) n (%) | White blood cell count decreased, All, G < 3 [2]: 2 (29) n (%) | White blood cell count decreased, All, G ≥ 3 [2]: 1 (14) n (%) | White blood cell count decreased, Related Both, Any G [2]: 2 (29) n (%) | White blood cell count decreased, Related HBI, Any G [2]: 2 (29) n (%) | Alanine aminotransferase increased, All, G < 3 [3]: 1 (14) n (%) | Alanine aminotransferase increased, Related Both, Any G [3]: 1 (14) n (%) | Anaemia, All, G < 3 [3]: 4 (57) n (%) | Anaemia, All, G ≥ 3 [3]: 1 (14) n (%) | Anaemia, Related Both, Any G [3]: 1 (14) n (%) | Anaemia, Related HBI, Any G [3]: 2 (29) n (%)
